This series in a line: method code SF-AS, from PMID: 4480356.

SMILES strings stand for the structures.

`O=C(O)c1ccccc1C(c1ccc(O)cc1)c1ccc(O)cc1` showed a log partition coefficient (logP) of 2.61.

In turn, `Cc1cnc(C(c2ccc(O)cc2)c2ccc(O)cc2)s1` came in with a logP of 3.34.

For the compound `Oc1ccc(C(c2ccncc2)c2ccc(O)cc2)cc1`, the lipophilicity (logP) was determined as 3.24.

Take `Oc1ccc(C(c2ccc(O)cc2)c2ccccn2)cc1`: the lipophilicity (logP) turned out to be 2.84.

`Oc1ccc(Cc2ccc(O)cc2)cc1`: the logP stood at 2.91.

Consider `OCc1ccccc1C(c1ccc(O)cc1)c1ccc(O)cc1`, for which the log partition coefficient (logP) came to 3.27.

As to `Nc1ccccc1C(c1ccc(O)cc1)c1ccc(O)cc1`, the logP amounted to 3.16. This logP and that of the compound before are within 0.2 log units of each other.

In turn, `Oc1ccc(C(c2ccc(O)cc2)c2nccs2)cc1` had a logP of 2.96.

`Cc1cnc(Cc2ccc(O)cc2)s1` returned a logP of 2.62.

Consider `Oc1ccc(C(c2ccc(O)cc2)c2cccnc2)cc1`, for which the logP came to 3.13.

The term logP denotes a log measure of how a compound divides between an organic and an aqueous phase.

For the origin of these results see the SangsterLogP compilation.
